# Assay results: patent US8586552B2, “4,6-substituted 2,5-dideoxystreptamine aminoglycoside antibiotics” (SelectX Pharmaceuticals, Inc., priority 2012, dated 2013)
# Key:
# Assay type in all cases: cell-based
# [1] = tested on: Pseudomonas aeruginosa (Pae, PAWT, ATCC #27853); assay: MIC against Pseudomonas aeruginosa reference strain PAWT; settings: Pseudomonas aeruginosa wild type PAWT; for MIC: ATCC27853
# Source text: (§1) For evaluation of efficacy, we assembled panels of representative gram-negative pathogens, including Pseudomonas aeruginosa (Pae, PAWT, ATCC #27853), Klebsiella pneumoniae (Kpn, KPWT, ATCC #700603), Acinetobacter baumannii (Aba, ABWT, ATCC #BAA-747) and Escherichia coli (Eco, ECWT, ATCC #25922). These reference strains are useful indicator organisms to characterize compound activity against bacteria from a pathogenic genus in the absence of multiple resistance mechanisms. Two strains (PAWT and ECWT) are reference strains cited within the Clinical and Laboratory Standards Institute (CLSI) Standards for susceptibility testing by Minimum Inhibitory Concentration (MIC) (SXPS2) and are well suited for quality control. ABWT and ECWT are widely susceptible to aminoglycoside antibiotics, whereas PAWT and KPWT harbor a single aminoglycoside-modifying enzyme (AGME) that targets 4,6-substituted-2-deoxystreptamine AGs. […]
# [2] = tested on: Pseudomonas aeruginosa PR1 (clinical isolate with intermediate aminoglycoside resistance); assay: MIC against Pseudomonas aeruginosa clinical isolate PR1; settings: Pseudomonas aeruginosa resistant strain PR1
# Source text: (§2) Pseudomonas aeruginosa is a prominent nosocomial pathogen. In addition to intrinsic antibiotic resistance to several antibiotics, Pseudomonas has acquired multiple additional mechanisms of resistance. As a result, therapeutic options for the treatment of infections caused by Pseudomonas aeruginosa are limited. We acquired clinical isolates of Pseudomonas aeruginosa (Micromyx LLC, Kalamazoo, Mich.), and used this panel to test compounds for Pseudomonicidal activity. […] For each strain and antibiotic, the mechanism(s) of resistance was inferred from the resistance profile. The presence of specific AGMEs was confirmed by colony PCR.
# [3] = tested on: Pseudomonas aeruginosa PR2 (clinical isolate with intermediate aminoglycoside resistance); assay: MIC against Pseudomonas aeruginosa clinical isolate PR2; settings: Pseudomonas aeruginosa resistant strain PR2
# Source text: as §2
# [4] = tested on: Pseudomonas aeruginosa PR3 (high-level, efflux-mediated, pan-aminoglycoside resistance); assay: MIC against Pseudomonas aeruginosa clinical isolate PR3; settings: for MIC PR3: Pseudomonas aeruginosa resistant strain PR3; for MIC: Pseudomonas aeruginosa, read-out: MIC PR3
# Source text: as §2
# [5] = tested on: more than fifty resistant contemporary clinical isolates of Pseudomonas aeruginosa; assay: MIC90 against panel of resistant clinical isolates of Pseudomonas aeruginosa; settings: Pseudomonas aeruginosa
# Source text: To assess this, a panel of more than fifty resistant contemporary clinical isolates of Pseudomonas aeruginosa were obtained from multiple sources including JMI Laboratories (North Liberty, Iowa), Pfizer (Groton, Conn.), Micromyx (Kalamazoo, Mich.), Dr. J. Chow (Wayne State University). Strains were characterized for resistance to a wide variety of classes of antibiotics including aminoglycosides, β-lactams and fluoroquinolones. […] This reflects the difficulty in treating clinical Pseudomonas aeruginosa infections. […] Using this stringent panel, we tested a subset of compounds of the invention (Table 4).
# [6] = tested on: fifty resistant contemporary clinical isolates of Klebsiella pneumoniae; assay: MIC90 against panel of resistant clinical isolates of Klebsiella pneumoniae; settings: Klebsiella pneumoniae; fifty resistant contemporary clinical isolates, reference antibiotics
# Source text: Using this stringent Klebsiella pneumoniae panel, we tested a subset of compounds of the invention.
# [7] = tested on: Klebsiella pneumoniae (Kpn, KPWT, ATCC #700603); assay: MIC against Klebsiella pneumoniae reference strain KPWT; settings: Klebsiella pneumoniae KPWT, Table 2; for MIC: ATCC700603
# Source text: as §1, with “These reference strains are useful indicator organisms to characterize compound activity against bacteria from a pathogenic genus in the absence of multiple resistance mechanisms.” left out
# [8] = tested on: Acinetobacter baumannii (Aba, ABWT, ATCC #BAA-747); assay: MIC against Acinetobacter baumannii reference strain ABWT; settings: for MIC: ATCCBAA747
# Source text: as §1
# [9] = tested on: Escherichia coli (Eco, ECWT, ATCC #25922); assay: MIC against Escherichia coli reference strain ECWT; settings: for MIC: ATCC25922
# Source text: For evaluation of efficacy, we assembled panels of representative gram-negative pathogens, including Pseudomonas aeruginosa (Pae, PAWT, ATCC #27853), Klebsiella pneumoniae (Kpn, KPWT, ATCC #700603), Acinetobacter baumannii (Aba, ABWT, ATCC #BAA-747) and Escherichia coli (Eco, ECWT, ATCC #25922). These reference strains are useful indicator organisms to characterize compound activity against bacteria from a pathogenic genus in the absence of multiple resistance mechanisms. Two strains (PAWT and ECWT) are reference strains cited within the Clinical and Laboratory Standards Institute (CLSI) Standards for susceptibility testing by Minimum Inhibitory Concentration (MIC) (SXPS2) and are well suited for quality control. ABWT and ECWT are widely susceptible to aminoglycoside antibiotics, whereas PAWT and KPWT harbor a single aminoglycoside-modifying enzyme (AGME) that targets 4,6-substituted-2-deoxystreptamine AGs.
# [10] = tested on: Klebsiella pneumoniae screening panel KPWT, KR1, KR2, KR3; assay: Klebsiella pneumoniae screening panel (KPWT, KR1, KR2, KR3), reference AGs
# Source text: Klebsiella pneumoniae (Kpn) and Escherichia coli (Eco) are gram-negative (like Pae), enteric pathogens with increasing clinical relevance. Many clinical isolates of Kpn and Eco harbor extended-spectrum beta-lactamases and are no longer sensitive to most beta-lactam antibiotics. We acquired clinical isolates of Klebsiella pneumoniae and Escherichia coli (Micromyx LLC, Kalamazoo, Mich.) and used this panel to test compounds for anti-enteric activity.
molecule,measurement,setting,value
NCC[C@H](O)C(=O)N[C@@H]1C[C@H](N)[C@@H](O[C@H]2O[C@H](CN)[C@@H](O)[C@H](O)[C@H]2O)[C@@H](F)[C@H]1O[C@H]1O[C@H](CNC(=O)[C@H](N)CCCNC(N)=O)[C@@H](O)[C@H](N)[C@H]1O [SXP1212-56″-7],MIC PAWT,[1],4 µg/mL
same,MIC PR1,[2],16 µg/mL
same,MIC PR2,[3],16 µg/mL
same,MIC PR3,[4],128 µg/mL
CC(C)[C@H](N)C(=O)NC[C@H]1O[C@H](O[C@@H]2[C@H](F)[C@H](O[C@H]3O[C@H](CN)[C@@H](O)[C@H](O)[C@H]3O)[C@@H](N)C[C@H]2NC(=O)[C@@H](O)CCN)[C@H](O)[C@@H](N)[C@@H]1O [SXP1212-56″-8],MIC PAWT,[1],4 µg/mL
same,MIC PR1,[2],8 µg/mL
same,MIC PR2,[3],8 µg/mL
same,MIC PR3,[4],64 µg/mL
C[C@H]1[C@H](NC(=O)/C(=N\OC(C)(C)C(=O)O)c2csc(N)n2)C(=O)N1S(=O)(=O)O [aztreonam],MIC90,[5],≥ 64 µg/mL
same,MIC90,[6],≥ 64 µg/mL
CO/N=C(\C(=O)N[C@@H]1C(=O)N2C(C(=O)[O-])=C(C[N+]3(C)CCCC3)CS[C@H]12)c1csc(N)n1 [cefepime],MIC90,[5],≥ 64 µg/mL
same,MIC90,[6],≥ 64 µg/mL
CC(C)(O/N=C(\C(=O)N[C@@H]1C(=O)N2C(C(=O)[O-])=C(C[n+]3ccccc3)CS[C@H]12)c1csc(N)n1)C(=O)O [ceftazidime],MIC90,[5],≥ 64 µg/mL
same,MIC90,[6],≥ 64 µg/mL
CO/N=C(\C(=O)N[C@@H]1C(=O)N2C(C(=O)O)=C(CSc3nc(=O)c(=O)[nH]n3C)CS[C@H]12)c1csc(N)n1 [ceftriaxone],MIC90,[5],≥ 64 µg/mL
same,MIC90,[6],≥ 64 µg/mL
NC[C@@H]1CC[C@@H](N)[C@@H](O[C@H]2[C@H](O)[C@@H](O[C@H]3O[C@H](CO)[C@@H](O)[C@H](N)[C@H]3O)[C@H](N)C[C@@H]2N)O1 [dibekacin],MIC,[1],0.25 to 0.5 µg/mL
same,MIC PAWT,[1]; listed as DIB,0.25 to 0.5 µg/mL
same,MIC,[7],16 µg/mL
same,MIC,[8],0.25 µg/mL
same,MIC,[9],1 to 2 µg/mL
same,MIC,[2],4 µg/mL
same,MIC,[3],> 64 µg/mL
same,MIC,[4],> 64 µg/mL
same,potency against Klebsiella pneumoniae test panel,[10],limited to no activity
C[C@@H](O)[C@H]1C(=O)N2C(C(=O)O)=C(S[C@@H]3CN[C@H](CNS(N)(=O)=O)C3)[C@H](C)[C@H]12 [doripenem],MIC90,[5],≥ 64 µg/mL
same,MIC90,[6],≥ 64 µg/mL
C[C@@H](O)[C@H]1C(=O)N2C(C(=O)O)=C(S[C@@H]3CN[C@H](C(=O)Nc4cccc(C(=O)O)c4)C3)[C@H](C)[C@H]12 [ertapenem],MIC90,[5],≥ 64 µg/mL
same,MIC90,[6],≥ 64 µg/mL
C[C@@H](O)[C@H]1C(=O)N2C(C(=O)O)=C(SCCN=CN)C[C@H]12 [imipenem],MIC90,[5],≥ 64 µg/mL
same,MIC90,[6],≥ 64 µg/mL
C[C@H]1COc2c(N3CCN(C)CC3)c(F)cc3c(=O)c(C(=O)O)cn1c23 [levofloxacin],MIC90,[5],≥ 64 µg/mL
same,MIC90,[6],≥ 64 µg/mL
C[C@@H](O)[C@H]1C(=O)N2C(C(=O)O)=C(S[C@@H]3CN[C@H](C(=O)N(C)C)C3)[C@H](C)[C@H]12 [meropenem],MIC90,[5],≥ 64 µg/mL
same,MIC90,[6],≥ 64 µg/mL
NC[C@@H]1O[C@H](O[C@H]2[C@@H](O)[C@H](O[C@@H]3[C@@H](O)[C@H](N)C[C@H](N)[C@H]3O[C@H]3O[C@H](CN)[C@@H](O)[C@H](O)[C@H]3N)O[C@@H]2CO)[C@H](N)[C@@H](O)[C@@H]1O [neomycin],MIC PAWT,[1],32 µg/mL
same,MIC KPWT,[7],4 to 8 µg/mL
same,MIC ABWT,[8],0.25 to 0.5 µg/mL
same,MIC ECWT,[9],1 µg/mL
same,MIC PR1,[2],32 µg/mL
same,MIC PR2,[3],8 to 16 µg/mL
same,MIC PR3,[4],>64 µg/mL
CCN1CCN(C(=O)N[C@@H](C(=O)N[C@@H]2C(=O)N3[C@@H]2SC(C)(C)[C@@H]3C(=O)O)c2ccccc2)C(=O)C1=O [piperacillin],MIC90,[5],≥ 64 µg/mL
same,MIC90,[6],≥ 64 µg/mL
CN[C@@H]1[C@@H](O)[C@@H](O[C@@H]2[C@@H](O)[C@H](O[C@H]3OC(CN)=CC[C@H]3N)[C@@H](N)C[C@H]2N)OC[C@]1(C)O [sisomycin],MIC PAWT,[1],0.25 to 0.5 µg/mL
same,MIC KPWT,[7],1 to 2 µg/mL
same,MIC PR1,[2],4 µg/mL
same,MIC PR2,[3],>64 µg/mL
same,MIC PR3,[4],>64 µg/mL
CN[C@@H]1[C@H](O)[C@H](NC)[C@H]2O[C@@]3(O)C(=O)C[C@@H](C)O[C@H]3O[C@@H]2[C@H]1O [spectinomycin],MIC,[1],> 64 µg/mL
same,MIC,[7],64 µg/mL
same,MIC,[8],16 µg/mL
same,MIC,[9],8 to 16 µg/mL
same,MIC,[2],> 64 µg/mL
same,MIC,[3],> 64 µg/mL
same,MIC,[4],> 64 µg/mL
[H]/N=C(/N)N[C@H]1[C@H](O)[C@@H](O)[C@H](O[C@@H]2O[C@@H](C)[C@](O)(C=O)[C@H]2O[C@@H]2O[C@@H](CO)[C@H](O)[C@@H](O)[C@@H]2NC)[C@@H](N/C(N)=N\[H])[C@@H]1O [streptomycin],MIC,[1],16 µg/mL
same,MIC,[7],1 to 2 µg/mL
same,MIC,[8],2 to 4 µg/mL
same,MIC,[9],4 µg/mL
same,MIC,[2],64 µg/mL
same,MIC,[3],16 µg/mL
NC[C@H]1O[C@H](O[C@H]2[C@H](O)[C@@H](O[C@H]3O[C@H](CO)[C@@H](O)[C@H](N)[C@H]3O)[C@H](N)C[C@@H]2N)[C@H](N)C[C@@H]1O [tobramycin],MIC,[1],0.25 µg/mL
same,MIC,[7],8 µg/mL
same,MIC,[8],0.25 µg/mL
same,MIC,[9],1 µg/mL
same,MIC,[2],2 µg/mL
same,MIC,[3],> 64 µg/mL
same,MIC,[4],> 64 µg/mL
same,MIC90,[5],≥ 64 µg/mL
same,MIC90,[6],≥ 64 µg/mL
gentamycin,MIC PAWT,[1],1 µg/mL
same,MIC KPWT,[7],8 µg/mL
same,MIC ABWT,[8],0.25 to 0.5 µg/mL
same,MIC ECWT,[9],0.5 µg/mL
same,MIC PR1,[2],8 µg/mL
same,MIC PR2,[3],>64 µg/mL
same,MIC PR3,[4],>64 µg/mL
